Assay results taken from patent US5840747A, “Calcium channel antagonists” (Eli Lilly and Company, priority 1995, dated 1998).
Entries after “also recorded” stand apart in the source; their conditions may differ.

Tests used:
Assay type in all cases: cell-based
[1] = target: T1, calcium channels in vascular tissue (Rattus norvegicus, UniProt P22002); test: Contractile response of rat aorta to the calcium agonist BayK 8644; settings: for inhibition of the contraction to BayK 8644: absence of an intact endothelium, 10 mM KCl prior to BayK 8644 (FIGS. 7 and 8)
T1 construct: BayK 8644-induced contraction
From the text: (§1) Male Wistar rats (250-350 g; Charles River Laboratories, Portage, Mich.) were sacrificed by cervical dislocation. The aorta was removed and cleaned of extraneous tissue and cut into ring segments, each approximately 4-5 mm long. In some tissues, endothelium was removed by rotating the ring segment around the tip of a forceps 10 times. Lack of tissue relaxation to acetylcholine (10^-6 M) after contraction with norepinephrine (10^-7 M) was used as evidence for denuded endothelium. Tissues with an intact endothelium relaxed to acetylcholine with 88.5±1.6% (n-11) relaxation.
Ring segments were placed between two stainless steel hooks and mounted in isolated organ baths containing 10 ml of modified Krebs' bicarbonate buffer of the following composition (mM): NaCl, 118.2; KCl, 4.6' CaCl2.2H2 O, 1.6; KH2 PO4, 1.2; MgSO4, 1.2; glucose, 10; and NaHCO3, 24.8. Organ bath solutions were aerated with 95% O2 /5% CO2 and maintained at 37° C. Tissues were placed under an optimal force of 4 grams and equilibrated for one hour with washes every 15 minutes. Changes in force were recorded and analyzed by a Biopac MP100 (World Precision Instruments, Sarasota, Fla.) data acquisition system via Sensotec (model MBL 5514-02) transducers (Sensotec Inc. Columbus, Ohio).
All tissues were initially challenged with KCl (67 mM) to establish viability. Concentration-response curves were generated in a cumulative fashion and are reported as a percentage of an initial KCl contraction (67 mM) produced in each tissue. Vehicle, β-estradiol, 14 or 16 were added to the tissues 60 minutes prior to initiating the concentration-response curves to agonists. In studies with BayK 8644, tissues were exposed to 10 mM KCl prior to initiating the concentration-response curves for BayK 8644. Only one agonist concentration-response curve was generated in each tissue. All results are expressed as mean±SE where n represents the number of rings examined. […]

rat aorta [2] = test: Contractile responses of rat aortic rings to norepinephrine, serotonin and U46619 (isolated organ bath); settings: for inhibitory effect on contractile responses to norepinephrine, serotonin, and U46619: summary in discussion; for dependence of the inhibition of contractile responses on the endothelium: rat aortic rings with versus without intact endothelium
From the text: Male Wistar rats (250-350 g; Charles River Laboratories, Portage, Mich.) were sacrificed by cervical dislocation. The aorta was removed and cleaned of extraneous tissue and cut into ring segments, each approximately 4-5 mm long. In some tissues, endothelium was removed by rotating the ring segment around the tip of a forceps 10 times. Lack of tissue relaxation to acetylcholine (10^-6 M) after contraction with norepinephrine (10^-7 M) was used as evidence for denuded endothelium. […] Tissues were placed under an optimal force of 4 grams and equilibrated for one hour with washes every 15 minutes. […] All tissues were initially challenged with KCl (67 mM) to establish viability. Concentration-response curves were generated in a cumulative fashion and are reported as a percentage of an initial KCl contraction (67 mM) produced in each tissue. Vehicle, β-estradiol, 14 or 16 were added to the tissues 60 minutes prior to initiating the concentration-response curves to agonists. […] Only one agonist concentration-response curve was generated in each tissue. All results are expressed as mean±SE where n represents the number of rings examined.

rat aorta [3] = test: Endothelium integrity: relaxation to acetylcholine after contraction with norepinephrine; settings: acetylcholine 10^-6 M after contraction with norepinephrine 10^-7 M, tissues with intact endothelium, n-11
From the text: as §1

[4] = 10^-6 and 10^-5 M, rat aorta with and without intact endothelium, added 60 minutes prior to agonist

T1 sequence (P22002 whole entry): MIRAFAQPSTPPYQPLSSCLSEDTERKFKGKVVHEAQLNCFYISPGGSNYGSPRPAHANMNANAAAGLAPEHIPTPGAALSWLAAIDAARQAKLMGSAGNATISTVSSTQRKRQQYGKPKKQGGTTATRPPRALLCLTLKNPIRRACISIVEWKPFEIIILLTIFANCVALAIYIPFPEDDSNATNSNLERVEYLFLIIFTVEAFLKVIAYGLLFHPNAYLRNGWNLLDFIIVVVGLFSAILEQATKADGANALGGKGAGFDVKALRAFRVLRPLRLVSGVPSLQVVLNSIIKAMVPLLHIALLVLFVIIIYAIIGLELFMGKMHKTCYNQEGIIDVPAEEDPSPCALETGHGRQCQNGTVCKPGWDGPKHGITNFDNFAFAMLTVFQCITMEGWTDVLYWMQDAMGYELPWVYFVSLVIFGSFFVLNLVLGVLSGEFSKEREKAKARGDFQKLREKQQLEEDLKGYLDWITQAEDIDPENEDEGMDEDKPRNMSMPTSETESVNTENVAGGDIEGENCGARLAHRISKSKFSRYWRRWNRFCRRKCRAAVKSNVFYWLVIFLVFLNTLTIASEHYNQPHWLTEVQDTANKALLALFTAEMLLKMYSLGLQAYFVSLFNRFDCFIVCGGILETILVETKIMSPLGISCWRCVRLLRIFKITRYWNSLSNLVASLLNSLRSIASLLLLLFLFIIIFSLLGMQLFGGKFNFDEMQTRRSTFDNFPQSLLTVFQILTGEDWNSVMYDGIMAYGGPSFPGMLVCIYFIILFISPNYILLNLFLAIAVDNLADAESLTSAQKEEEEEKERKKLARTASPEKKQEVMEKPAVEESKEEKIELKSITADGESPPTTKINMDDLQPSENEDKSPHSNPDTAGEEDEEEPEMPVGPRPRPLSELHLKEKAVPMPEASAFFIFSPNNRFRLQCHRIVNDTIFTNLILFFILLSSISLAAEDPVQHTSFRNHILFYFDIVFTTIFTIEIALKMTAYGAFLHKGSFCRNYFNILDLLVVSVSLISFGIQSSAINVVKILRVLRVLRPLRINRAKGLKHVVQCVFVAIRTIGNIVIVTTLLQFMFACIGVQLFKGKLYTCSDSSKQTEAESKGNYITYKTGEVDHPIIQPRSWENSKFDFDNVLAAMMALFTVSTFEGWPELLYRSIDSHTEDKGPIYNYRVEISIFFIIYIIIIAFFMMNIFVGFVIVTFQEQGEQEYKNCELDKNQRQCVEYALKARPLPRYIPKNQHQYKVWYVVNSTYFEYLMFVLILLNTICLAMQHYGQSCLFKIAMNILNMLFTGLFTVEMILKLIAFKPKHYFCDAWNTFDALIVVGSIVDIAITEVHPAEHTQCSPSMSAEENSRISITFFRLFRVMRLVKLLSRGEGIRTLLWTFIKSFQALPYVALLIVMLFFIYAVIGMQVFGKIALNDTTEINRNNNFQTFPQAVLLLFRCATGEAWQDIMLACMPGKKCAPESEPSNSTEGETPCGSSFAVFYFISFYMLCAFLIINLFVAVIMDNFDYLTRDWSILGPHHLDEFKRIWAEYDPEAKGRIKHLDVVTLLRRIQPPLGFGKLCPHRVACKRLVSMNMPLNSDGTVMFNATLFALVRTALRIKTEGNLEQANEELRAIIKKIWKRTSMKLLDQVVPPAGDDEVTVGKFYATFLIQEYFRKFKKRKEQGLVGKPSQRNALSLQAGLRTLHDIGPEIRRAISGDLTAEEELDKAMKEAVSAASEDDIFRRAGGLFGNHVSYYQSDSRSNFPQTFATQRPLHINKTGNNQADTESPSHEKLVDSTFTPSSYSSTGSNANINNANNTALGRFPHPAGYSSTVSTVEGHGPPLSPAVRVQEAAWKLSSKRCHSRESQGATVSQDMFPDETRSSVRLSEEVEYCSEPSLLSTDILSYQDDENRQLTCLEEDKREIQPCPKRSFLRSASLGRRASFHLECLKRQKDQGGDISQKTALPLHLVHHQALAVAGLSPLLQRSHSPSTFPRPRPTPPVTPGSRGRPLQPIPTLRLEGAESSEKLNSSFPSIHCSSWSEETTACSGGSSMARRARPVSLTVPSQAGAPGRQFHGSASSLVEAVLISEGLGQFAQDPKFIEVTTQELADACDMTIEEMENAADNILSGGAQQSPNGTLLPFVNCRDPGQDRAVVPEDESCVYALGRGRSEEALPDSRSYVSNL

Row | Structure (SMILES) | inhibition of the contraction to BayK 8644 [1] | inhibition of contractile responses to serotonin (rat aorta [2]; rat aorta with and without intact endothelium (FIG. 4), concentration not given) | inhibition of serotonin response compared with norepinephrine response (rat aorta [2]; rat aorta with and without intact endothelium (FIGS. 4 and 5)) | inhibitory effect on contractile responses to norepinephrine, serotonin, and U46619 (rat aorta [2]; rat aorta) | dependence of the inhibition of contractile responses on the endothelium (rat aorta [2]) | relative potency as calcium channel antagonist ([1]; comparison between substances) | inhibition of contractile response to U46619 (rat aorta [2]; [4]) | inhibition of contractile response to norepinephrine (rat aorta [2]; [4]) | inhibition of contractile response to serotonin (rat aorta [2]; [4]) | potency in inhibiting contraction to serotonin relative to norepinephrine or U46619 (rat aorta [2]; rat aorta) | percent relaxation to acetylcholine at 1 µM (rat aorta [3]) [%]
1 | O=C(c1ccc(OCCN2CCCCC2)cc1)c1c(-c2ccc(O)cc2)sc2cc(O)ccc12 [Compound 14, 6-hydroxy-2-(4-hydroxyphenyl)-3-[4-(2-piperidinoethoxy)benzoyl]benzo[b]thiophene] | inhibition of the contraction to BayK 8644 occurred | inhibited | greater than with norepinephrine | marked inhibitory effect | independent of an intact endothelium |  |  |  |  |  | 
2 | O=C(c1ccc(OCCN2CCCC2)cc1)c1c(-c2ccc(O)cc2)sc2cc(O)ccc12 [Compound 16, 6-hydroxy-2-(4-hydroxyphenyl)-3-[4-(2-pyrrolidinoethoxy)benzoyl]benzo[b]thiophene] | inhibition of the contraction to BayK 8644 occurred |  |  | marked inhibitory effect | appeared independent of the endothelium | considerably more potent as a calcium channel antagonist than 14; also recorded: more potent calcium channel antagonist in vascular tissue than estrogen | potently inhibited | potently inhibited | potently inhibited | more potent in inhibiting the contractile response to serotonin relative to norepinephrine or U46619 | 
3 | CC(=O)OCC[N+](C)(C)C [acetylcholine] |  |  |  |  |  |  |  |  |  |  | 88.5 ± 1.6
